This note sets out measurements from patent US6825181B1, “Aminoisoquinoline derivatives” (Ajinomoto Co., Inc., priority 1998, dated 2004).

Each structure is given as a SMILES string.

Common to all, as to format: biochemical
Experiment [1] deals with T1, activated human blood coagulation factor X (Homo sapiens, UniProt P00742).
T1 construct: purchased Enzyme Research Co
Put plainly: Determination of activity of inhibiting the activated blood-coagulation factor X. The settings on record: negative logarithm of concentration inhibiting 50% of initial rate; pH 8.4, room temperature; read-out: Activity of inhibiting activated blood coagulation factor X (pIC50) (converted). The procedure:
Determination of Activity of Inhibiting the Activated Blood-Coagulation Factor X
130 μl of 100 mM tris hydrochloride buffer adjusted to pH 8.4 was added to 10 μl of an aqueous solution of a compound to be tested. Then 10 μl of a 0.5 unit/ml solution of activated human blood coagulation factor X (a product of Enzyme Research Co.) in tris hydrochloride of pH 8.4 was added to the resultant mixture. After the incubation at room temperature for 10 minutes, 50 μl of a solution of N-benzoyl-L-isoleucyl-L-glutamyl-glycyl-L-arginyl-P-nitroanilide hydrochloride (a product of Peptide Institute, Inc.) adjusted to 0.8 mM with tris hydrochloride (pH 8.4) was added thereto. The absorbance was determined and then the initial reaction rate was determined. A control was prepared in the same manner as that described above except that the solution of the compound to be tested was replaced with 10 μl of tris hydrochloride buffer adjusted to pH 8.4. The absorbance was determined with MICROPLATE READER Model 3550-UV (a product of BIO RAD) at a wave length of 405 nm at intervals of 15 seconds for 16 minutes.

The target in experiment [2] is T2, human thrombin (Homo sapiens, UniProt P00734).
T2 construct: solution of human thrombin (a product of SIGMA Co.); purchased SIGMA Co
The experiment can be described thus: Determination of thrombin-inhibiting activity. The conditions noted are these: negative logarithm of concentration inhibiting 50% of initial rate; substrate S-2238, pH 8.4; read-out: Thrombin-inhibiting activity (pIC50) (converted). Here is the method:
Determination of Thrombin-Inhibiting Activity:
130 μl of 100 mM tris hydrochloride buffer adjusted to pH 8.4 was added to 10 μl of an aqueous solution of a test compound. Then 10 μl of a solution of human thrombin (a product of SIGMA Co.) adjusted to 2 units/ml with tris hydrochloride buffer of pH 8.4 was added to the resultant mixture. After the incubation at room temperature for 10 minutes, 50 μl of a solution of D-phenylalanyl-L-pipecolyl-L-arginyl-P-nitroanilide dihydrochloride (S-2238; a product of Daiichi Kagaku Yakuhin Co.) adjusted to 0.4 mM with tris hydrochloride buffer of pH 8.4 was added thereto. The absorbance was determined and then the initial reaction rate was determined. A control was prepared in the same manner as that described above except that the solution of the compound to be tested was replaced with 10 μl of tris hydrochloride buffer adjusted to pH 8.4. The absorbance was determined with MICROPLATE READER Model 3550-UV (a product of […]) at a wave length of 405 nm at intervals of 15 seconds for 16 minutes. The negative logarithm (pIC50) of a concentration of the test compound which inhibits 50% of the activity (initial rate) of the thrombin in the absence of the test compound was determined, and employed as the index of the activity of inhibiting thrombin.

For experiment [3], the system named is blood plasma from healthy people (prothrombin time). The experiment can be described thus: Determination of blood anticoagulating activity by prothrombin time (PT) determination method. The settings on record: negative logarithm of concentration which elongated PT of the control to twice as long; human blood plasma. Here is the method:
Determination of Blood Anticoagulating Activity:
The blood anticoagulating activity was determined by a prothrombin time (PT) determination method. The PT was determined as follows: The blood was taken from healthy people. 3.8% aqueous trisodium citrate solution was added to the blood in a volume ratio of 1:10. The blood plasma was separated by the centrifugation. 5 μl of DMSO solution containing a test compound was added to 45 μl of the blood plasma. After the incubation at room temperature for 2 minutes, a test tube containing the blood plasma solution was placed in Sysmex CA-3000 fully automatic blood coagulation determination device (a product of To a Medical Electronics Co., Ltd.), and incubated at 37° C. for 3 minutes. 100 μl of Sysmex PT II (rabbit brain tissue thromboplastin, 13.2 mM calcium chloride; a product of To a Medical Electronics Co., Ltd.) was fed into the test tube. PT was automatically determined with the device. A sample containing […] of DMSO in place of the solution of the test compound was used as the control. The negative logarithm (PT2) of the concentration of the test compound which elongated PT of the control to the twice as long was determined, and employed as the index of the blood anticoagulating activity.

T1 sequence (P00742 235-488 limits assumed): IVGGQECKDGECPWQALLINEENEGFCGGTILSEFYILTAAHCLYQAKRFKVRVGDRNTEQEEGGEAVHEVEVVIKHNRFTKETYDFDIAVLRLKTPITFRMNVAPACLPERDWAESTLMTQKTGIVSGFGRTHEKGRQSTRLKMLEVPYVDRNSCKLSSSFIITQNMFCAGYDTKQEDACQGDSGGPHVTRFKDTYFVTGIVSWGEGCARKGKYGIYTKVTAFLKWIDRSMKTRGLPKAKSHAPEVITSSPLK
T1 sequence (P00742 41-179 partner limits assumed): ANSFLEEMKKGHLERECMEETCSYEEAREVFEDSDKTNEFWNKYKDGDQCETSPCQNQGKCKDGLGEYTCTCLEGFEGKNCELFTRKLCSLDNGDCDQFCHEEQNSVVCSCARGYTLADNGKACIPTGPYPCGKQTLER

In the case of `Nc1nccc2ccc(OCCNC(=O)c3ccc(C(=O)N4CCCC4)cc3)cc12` [Compound of Ex. 2, N-[2-(1-aminoisoquinoline-7-yloxy)ethyl]-4-(1-pyrrolidinecarbonyl)benzamide mono-trifluoroacetate], the IC50 in experiment [1] was 0.251 µM; in experiment [2], 251 µM. In addition, the “Blood anticoagulating activity (PT2)” value in experiment [3] stood at 5.5.
As to `Nc1nccc2ccc(OC[C@@H](CCC(=O)O)NC(=O)c3ccc(C(=O)N4CCCC4)cc3)cc12` [Compound of Ex. 16, (4R)-5-(1-aminoisoquinoline-7-yloxy)-4-[4-(1-pyrrolidinecarbonyl)benzoylamino]pentanoic acid mono-trifluoroacetate], the results for the IC50 in experiment [1] and in experiment [2] were 0.0794 µM and above 1000 µM, respectively. For the same molecule, the “Blood anticoagulating activity (PT2)” value in experiment [3] amounted to 5.6.
For the molecule `CCOC(=O)CC[C@H](COc1ccc2ccnc(N)c2c1)NC(=O)c1ccc(C(=O)N2CCCC2)cc1` [Compound of Ex. 17, ethyl (4R)-5-(1-aminoisoquinoline-7-yloxy)-4-[4-(1-pyrrolidinecarbonyl)benzoylamino]pentanoate mono-trifluoroacetate], the IC50 was 0.251 µM in experiment [1] and 316 µM in experiment [2].
Take `Nc1nccc2ccc(OC[C@@H](CCC(=O)O)NC(=O)C3CCN(c4ccncc4)CC3)cc12` [Compound of Ex. 21, (4R)-5-(1-aminoisoquinoline-7-yloxy)-4-[(1-(4-pyridyl)-4-piperidine)carbamido]pentanoic acid bistrifluoroacetate]: the IC50 in experiment [1] was 0.158 µM; in experiment [2], 316 µM.
The like results for `Nc1nccc2cc(CC(=O)C(=O)O)c(OCCNC(=O)c3ccc(C(=O)N4CCCC4)cc3)cc12` [Compound of Ex. 23, 3-[1-amino-(2-(4-(1-pyrrolidinecarbonyl)benzoylamino)ethoxy)isoquinoline-6-yl]-2-oxopropionic acid mono-trifluoroacetate] were, in that order, 0.0251 µM and 15.8 µM.
The like results for `N=C(N)Nc1ccc(C(=O)N[C@H](CCC(=O)O)COc2ccc3ccnc(N)c3c2)cc1` [Compound of Ex. 25, (4R)-5-(1-aminoisoquinoline-7-yloxy)-4-[4-(guanidino)benzoylamino]pentanoic acid mono-trifluoroacetate] were, in that order, 0.398 µM and 794 µM.
As to `CC(=N)N1CCC(Oc2ccc(C(=O)NCCOc3cc4c(N)nccc4cc3CC(=O)C(=O)O)cc2)CC1` [Compound of Ex. 26, 3-[1-amino-7-(2-(4-(1-acetimidoyl-4-piperidyloxy)benzoylamino)ethoxy)isoquinoline-6-yl]-2-oxopropionic acid bistrifluoroacetate], the IC50 was 0.2 µM in experiment [1] and above 501 µM in experiment [2]. Moreover, in experiment [3], the “Blood anticoagulating activity (PT2)” value is listed as 6.2.
As to `Nc1nccc2cc(CC(=O)C(=O)O)c(OCCNC(=O)C3CCN(c4ccncc4)CC3)cc12` [Compound of Ex. 27, 3-[1-amino-7-(2-(4-(1-(4-pyridyl)-4-piperidine)carbonylamino)ethoxy)isoquinoline-6-yl]-2-oxopropionic acid bistrifluoroacetate], the IC50 in experiment [1] is 0.251 µM; in experiment [2], above 501 µM. For the same molecule, in experiment [3], the “Blood anticoagulating activity (PT2)” value is listed as 6.2.
